Data taken from a compilation of properties of binary mixtures (doi:10.1007/s10953-019-00842-w).

Experiment: xn = mol fraction of the nth substance listed
Conditions: 101 kPa

CC1COC(=O)O1 (stereo not given) + CC[n+]1ccn(C)c1.O=S(=O)([O-])C(F)(F)F
x2 = 0
Conditions | viscosity [mPa·s]
288.15 K | 3.53
298.15 K | 2.5
303.15 K | 2.2
308.15 K | 1.97
313.15 K | 1.79
318.15 K | 1.65
323.15 K | 1.538
328.15 K | 1.451
333.15 K | 1.373
338.15 K | 1.307
348.15 K | 1.201
353.15 K | 1.162

CC[n+]1ccn(C)c1.O=S(=O)([O-])C(F)(F)F + CC1COC(=O)O1
viscosity [mPa·s]
Conditions | x1 = 0.0999 | x1 = 0.1999 | x1 = 0.3005 | x1 = 0.3998 | x1 = 0.5001 | x1 = 0.601 | x1 = 0.6987 | x1 = 0.8004 | x1 = 0.8998 | x1 = 1
288.15 K | 6.25 | 8.7 | – | – | – | 24.4 | 30.7 | 39.1 | 46.9 | 59.2
293.15 K | – | 7.33 | 9.18 | 12.2 | 15.69 | 20.5 | 25.6 | – | 38.8 | 48.6
298.15 K | 4.53 | 6.2 | 7.76 | 10.37 | 13.37 | 17.6 | 21.7 | – | – | –
303.15 K | – | 5.31 | 6.65 | – | 11.43 | 15.01 | – | 23.1 | 27.6 | –
308.15 K | 3.4 | 4.57 | 5.77 | 7.65 | – | 12.99 | 16.02 | 19.9 | 23.6 | 29
313.15 K | 3.03 | 4.01 | 5.07 | 6.67 | 8.69 | 11.33 | 13.95 | 17.2 | – | –
318.15 K | 2.7 | – | – | – | – | 9.92 | 12.22 | 15.08 | – | 21.5
323.15 K | 2.42 | 3.13 | 3.94 | 5.12 | 6.8 | 8.79 | – | 13.15 | – | 18.6
328.15 K | 2.17 | – | – | – | – | – | 9.52 | 11.61 | 13.62 | 16.5
333.15 K | 2.01 | 2.52 | – | 4.07 | 5.53 | 6.99 | – | – | 12.12 | 14.61
338.15 K | 1.84 | 2.28 | 2.83 | 3.65 | 4.99 | – | 7.59 | – | 10.74 | 13.02
343.15 K | – | 2.14 | 2.6 | – | 4.51 | 5.75 | 6.92 | 8.33 | 9.66 | 11.52
348.15 K | 1.611 | 1.97 | 2.41 | 3.14 | 4.14 | 5.26 | 6.33 | 7.61 | 8.9 | 10.29
353.15 K | 1.57 | 1.89 | – | 2.94 | 3.9 | 4.9 | 5.92 | 7.17 | – | –
